For 71 compounds, cytotoxicity results are on record in ChEMBL document CHEMBL3507680, “University of Dundee, Gates Library screen for HepG2 cell viability”.

This series in a line: Human HepG2 cell viability assay in 384 well format. In kind it is toxicity, cell-based. More on the design: dose 125 nL, time 70.5 hour; cytotoxicity at 70.5 h: concentration not given beside the values. Particulars: HepG2 cells, read-out: Inhibition.
Turning to `CC(NC(=O)c1ccnn1C)c1ccc(OCC2CC2)c(F)c1` (stereo unspecified), the cytotoxicity at 70.5 h came out at 10.9%.

As to `Cc1nc(-c2cc(Cl)c3c(c2)CC(CN)O3)c[nH]1` (stereo unspecified), the cytotoxicity at 70.5 h came to 0.0695%.

On to `Cc1ccc(CN2CCOC3(COCCN(CCN(C)C)C3)C2)o1` (stereo unspecified), for which the cytotoxicity at 70.5 h is -7.86%.

Turning to `Cc1nn(C)c2cnn(CC(=O)NCc3ccc4c(c3)OCO4)c12`, the cytotoxicity at 70.5 h was -3.63%. For `CCCOCCn1ncc(N2CCc3ccccc3C2)cc1=O`, the cytotoxicity at 70.5 h is -1.9%.

With `O=C1NCC2(CCN(C(=O)c3ccc4c(c3)CCCO4)CC2)O1`, the cytotoxicity at 70.5 h is -1.35%. Regarding `F[C@@H]1CN(CC2CC2)C[C@@H]1OCc1nc2ncccc2[nH]1`, the cytotoxicity at 70.5 h is -3.03%. With `Cc1ncc(CNC(=O)N(CCCO)C2CCc3ccccc32)s1` (stereo unspecified), the cytotoxicity at 70.5 h is -5.3%.

In the case of `COc1ccc(-c2cnc3n2CCNC32CCN(S(C)(=O)=O)CC2)cc1`, the cytotoxicity at 70.5 h is -6.19%.

As to `CCOc1cccc(COC(=O)c2scnc2C)n1`, the cytotoxicity at 70.5 h stood at 5.38%. With `Cc1cc(N2CCCC2(C)c2nc(C)cc(C(=O)N(C)C)n2)ncn1` (stereo unspecified) the figure was -2.78%; with `Cc1nn(CCO)c(C)c1-c1cc(C(C)(C)C)nc(N)c1C#N`, 16.9%; with `CN(Cc1ccc(Cl)s1)C(=O)CN(C)C1CCCc2ccccc21` (stereo unspecified), -4.74%.

`COCc1nc(C(=O)NS(=O)(=O)c2ccc(Cl)cc2F)cs1`: the cytotoxicity at 70.5 h was -3.46%. Then `O=C(CN1CCCC1=O)NCc1cccnc1Oc1ccc(F)c(F)c1`, with 1.24%; and `Cc1nc(C)n(CC2CCCN2Cc2cscn2)n1` (stereo unspecified), with -9.32%. Then `CN1CCCC(c2nccnc2-c2cccc(Cl)c2)C1` (stereo unspecified), with -9.62%; and `CC(C)NC(=O)O[C@H]1COCCN(c2nc3ccccc3s2)C1`, with -5.43%; and `Cc1cc(Cc2ccccc2F)cc(C2CCCNC2)n1` (stereo unspecified), with -1.65%. For the compound `CC(Cn1cccn1)NS(=O)(=O)Cc1ccc(F)cc1` (stereo unspecified), the cytotoxicity at 70.5 h was found to be 5.43%. Then `O=C(c1ccccc1C1CCNC1)N1CCC(N2CCC(O)CC2)CC1` (stereo unspecified), with -12.4%; and `CNC(=O)c1ccc(N(C)C2CCC2)nn1`, with 9.71%; and `CCC[C@H]1CN(CCS(C)(=O)=O)C[C@@H]1NC(=O)Cn1cc(C)cn1`, with -6.99%. `Cc1ccc(CNC(=O)NCC(=O)N2CCCC2)c(N2CCCC2)c1`: the cytotoxicity at 70.5 h came out at 4.74%. Consider `COCc1cncc2c1CCN(Cc1cnn(C)c1)C2`, for which the cytotoxicity at 70.5 h turned out to be 10.6%. With `Cc1nc(N2CCN(C(=O)c3cccnc3)CC2)cc(-n2cccc2)n1` the figure was 4.9%; with `COc1ccc2c(C)nc(N3CCN([C@H]4CCCC[C@@H]4O)CC3)nc2c1`, 18.8%. `Cc1cc(C[C@@H]2CCC[C@H]2NCc2ccc(C(F)(F)F)cc2)on1`: the cytotoxicity at 70.5 h is -2%. Then `CCN1C[C@H]2CCN(C(=O)NC3CCCC3)CC[C@H]2S1(=O)=O`, with 12.8%; and `CNS(=O)(=O)c1ccc(CNC(=O)NCc2cc[nH]n2)cc1`, with -12.9%. With `Cc1nsc(NC(=O)NC2CCCOC2)n1` (stereo unspecified) the figure was 23%; with `CNc1cncc(C2CCCN2c2cc(C)ncn2)n1` (stereo unspecified), 17.1%. For `COc1cccc(OC2CN(C(=O)c3sccc3C)C2)c1`, the cytotoxicity at 70.5 h is -4.06%. As to `O=C(N[C@@H]1CCC[C@@H](N2CCCC2)[C@@H]1O)c1cnn2cccnc12`, the cytotoxicity at 70.5 h was -1.75%. As to `CN(C)c1ccc(CC(=O)N2CCOCC(O)C2)cc1` (stereo unspecified), the cytotoxicity at 70.5 h came out at 22.5%. Then `Cc1[nH]ncc1C(C)NCc1cccnc1` (stereo unspecified), with 5.33%; and `COCCn1c(-c2cccc(OC)c2)cnc1NC(=O)NC(C)C`, with -2.89%. Then `N[C@@H](C(=O)N1CCN(c2ccccc2Cl)C(=O)C1)c1ccccc1`, with -14.1%. With `CCOc1ccc2ccccc2c1CNCC1CCNCC1` the figure was 9.2%; with `O=C(NCc1cnc2n1CCN(Cc1cccs1)C2)c1ccno1`, 18.9%. Consider `COc1ccc(C)cc1CCNS(=O)(=O)c1ccc2c(c1)CCC(=O)N2`, for which the cytotoxicity at 70.5 h is -18.5%.

For the compound `CCC1CN(CC(=O)N2CCC2)CCN1CCOC` (stereo unspecified), the cytotoxicity at 70.5 h is -2.85%. Then `Cn1cc(Cl)c(C(=O)N2CCCN(C3Cc4ccccc4C3)CC2)n1`, with 47.8%; and `Cc1nc(C)n(CCNC(=O)C2(C)CC(c3ccccc3)=NO2)n1` (stereo unspecified), with 1.37%; and `O=C(CCn1cncn1)NC1CCc2nccn2C1` (stereo unspecified), with -0.747%. With `Cc1csc(CNC(=O)N(C)Cc2nnc3n2CCC3)n1` the figure was -12.1%; with `O=S(=O)(CC1CCCCC1)NCc1ccc(O)nc1`, -10.2%. Then `O=C([C@H]1COC[C@H]2CN(C3CCOCC3)C[C@H]21)N1CCCCO1`, with 4.24%; and `CN1CC(=O)N(c2cnn(C)c2)CC12CCN(C(=O)c1ccsc1)C2` (stereo unspecified), with -7.55%. Regarding `CC(C)CCN1Cc2c(C(=O)O)ncn2-c2ccccc2S1(=O)=O`, the cytotoxicity at 70.5 h worked out at 30.1%.

Turning to `CC(=O)N1CC[C@H]2OCC[C@@]2(C(=O)NCCc2ccccn2)C1`, the cytotoxicity at 70.5 h came out at 4.18%. `C[C@@H]1CN(c2ccc(Cl)cn2)C[C@]1(C)O`: the cytotoxicity at 70.5 h worked out at 3.11%. Then `CCS(=O)(=O)N1CCC2(CN(c3cc(OC)ncn3)C2)C1`, with 12.1%.

Turning to `COCCN1C[C@@H]2CN(c3ncc(F)cn3)C[C@@H]2C1=O`, the cytotoxicity at 70.5 h is -47.2%. Turning to `O=C1CCN(C(=O)NCC(c2ccccc2)c2ccccc2)CCN1`, the cytotoxicity at 70.5 h was -2.48%.

Turning to `COc1cc(Cl)c(NCc2c(C)noc2C)cc1OC`, the cytotoxicity at 70.5 h is -7.06%. With `O=C([C@@H]1C[C@@H]2CCN(C3CCOCC3)C[C@H]2O1)N1CCCC1` the figure was -4.52%; with `Cc1ccc([C@H]2CN(CCO)C[C@@H]2NC(=O)CN2CCCCC2=O)o1`, -11%. Then `NS(=O)(=O)N1CCc2ccc(NC(=O)Cc3ccccc3F)cc21`, with 22.4%. Consider `Cc1cc(C2CCC2)nc(N(C)Cc2cnccn2)n1`, for which the cytotoxicity at 70.5 h is -6.23%. With `COc1cccc(CN2CC(O)CN(C(=O)C3CCC3)CC2=O)c1OC` (stereo unspecified) the figure was -4.14%; with `c1cn(Cc2nnc(C3CCN(c4nccs4)CC3)n2C2CC2)cn1`, -4.16%; with `CNC(=O)c1cnc(/C=C/c2cc(OC)c(O)c(OC)c2)s1`, -12.6%.

In the case of `c1ccc(-c2noc(CN3CCc4c(ncn4C4CC4)C3)n2)nc1`, the cytotoxicity at 70.5 h is -6.92%. Consider `CC1COCCN1Cc1nc(-c2cccs2)no1` (stereo unspecified), for which the cytotoxicity at 70.5 h is -31%. Turning to `CCC1CN(CCCNS(C)(=O)=O)c2ccccc2O1` (stereo unspecified), the cytotoxicity at 70.5 h was -4.06%. With `CN1CCC(NC(=O)CCCc2cc(Cl)sc2Cl)C1=O` (stereo unspecified) the figure was -9.29%; with `COc1ccc2c(c1)OCC(CNC(=O)CCc1c(C)n[nH]c1C)C2` (stereo unspecified), -1.4%.

`COCCCN1Cc2cccc(NC(=O)c3cc(F)cc(F)c3)c2C1`: the cytotoxicity at 70.5 h came to 4.56%. Then `Cc1nc(CN2CCCC2c2[nH]ncc2C(=O)N(C)C)cs1` (stereo unspecified), with -2.79%. With `CS(=O)(=O)N1CCC2(CC1)NCCn1c(-c3ccccc3)cnc12` the figure was -7.68%.
